In PMC8579695, “The Stringent Response Inhibits 70S Ribosome Formation in Staphylococcus aureus by Impeding GTPase-Ribosome Interactions” (mBio, 2021):

Test system: Era-His association to 30S ribosomes in S. aureus USA300
Assay: In vivo ribosome association of Era-His to 30S in S. aureus cells
Format: cell-based, Staphylococcus aureus
Conditions: USA300 (p)ppGpp-null Δera iTET-era-His; 0.05 or 60 μg/ml mupirocin for 15 min
Description: Upon induction of the stringent response, cellular levels of (p)ppGpp increase, while concentration of GTP drops ([38]). Having observed decreased association of RA-GTPases to ribosomal subunits in vitro, we wanted to examine the interaction under more physiologically relevant conditions. To investigate RA-GTPases interactions with the ribosome in the bacterial cell, we used an era deletion mutant in a community-acquired methicillin-resistant S. aureus (CA-MRSA) USA300 strain that we had previously constructed ([10]). […] To establish whether induction of the stringent response in bacterial cells leads to a decrease in the association of Era to the 30S subunit, the era mutant was complemented with an Atet-inducible 6×His-tagged version of era using the iTET vector. […] Normalized 30S pools were analyzed for associated Era-His using α-His Western immunoblotting (Fig. 4C). Crude lysates sampled prior to loading on the sucrose gradients were also analyzed to ensure equal loading and equal expression of Era-His between samples (see Fig. S5B). […]
FIG 4 Association of Era to the 30S subunit is reduced under stringent conditions. […] RNA content was analyzed at an absorbance of 260 nm. […] Ribosomal subunits were separated, and the amount of Era-His associated in each strain was detected using HRP-conjugated α-His antibodies. […]

C/C(=C\C(=O)OCCCCCCCCC(=O)O)C[C@@H]1OC[C@H](C[C@@H]2O[C@H]2[C@@H](C)[C@H](C)O)[C@@H](O)[C@H]1O [mupirocin]
ribosome association of Era-His after treatment, (p)ppGpp-null strain: decrease is not seen
